# Assay results as given in patent publication US20060292683A1, “Cross-beta structures on microbial organisms” (Crossbeta Biosciences B.V., priority 2005, published 2006).
# Experiments:
# THP-1 monocytes = assay: Tissue factor up-regulation in THP-1 monocytes by misfolded proteins; assay type: cell-based; conditions: 40 μg/ml glycated hemoglobin or 10 μg/ml amyloid-β(1-40); controls freshly dissolved
# Procedure: For tissue factor expression analysis purposes, THP-1 cells were cultured in IMDM without gentamycin and streptomycin. At day 0, one ml of cells was seeded at 1×10^6 cells/ml in the wells of six-well culture plates. At day 1, […] PBS or with cross-beta structure binding compounds ThT, Congo red, tPA and IgIV, as described above, at a cell density of 1.8×10^7/ml (regular culturing conditions). Negative control was buffer. After six hours, the cells were pelleted by centrifugation and resuspended in 100 μl TBS (50 mM Tris-HCl, 150 mM NaCl, pH 7.0-7.3). Next, the cells were frozen and thawed for four subsequent cycles. Cells were centrifuged for ten minutes at 16,000*g and the supernatant was used for analysis of tissue factor (TF) expression. First, protein concentrations were determined using an established protein concentration assay (Bicinchoninic Acid (BCA) Protein Assay). Protein concentrations were equalized between samples with TBS to correct for variations in cell density. […] Conversion of the substrate by activated factor X at 37° C. was recorded in time for 100 minutes, by absorbance readings at 405 nm. As an additional control, factor X activity was assessed with S. aureus cells only, omitting the monocytes. […]
# [1] = molecular target: glycated hemoglobin (Hb-AGE) (Homo sapiens, UniProt P68871+P69905); assay: ELISA capture of glycated hemoglobin from solution by immobilized finger domains; assay type: binding; conditions: immobilized finger domain; not control hemoglobin
# Sequence of glycated hemoglobin (Hb-AGE) (P69905 whole entry, the tested form may be a part): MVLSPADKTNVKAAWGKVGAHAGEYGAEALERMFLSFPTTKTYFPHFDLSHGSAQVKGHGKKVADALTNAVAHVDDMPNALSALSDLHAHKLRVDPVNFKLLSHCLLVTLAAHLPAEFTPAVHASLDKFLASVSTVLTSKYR
# Sequence of glycated hemoglobin (Hb-AGE) (P68871 whole entry, the tested form may be a part): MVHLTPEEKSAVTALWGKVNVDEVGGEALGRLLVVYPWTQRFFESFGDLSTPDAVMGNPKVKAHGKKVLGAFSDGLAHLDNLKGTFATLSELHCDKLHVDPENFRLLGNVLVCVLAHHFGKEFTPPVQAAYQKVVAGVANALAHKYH
Substance,TF expression in THP-1 monocytes (factor X activation by lysates) (THP-1 monocytes),capture of glycated hemoglobin in solution [1]
amyloid-β: amyloid-β(1-40) with cross-beta structure conformation,induce elevated levels of TF,–
"fibronectin F4-5 with a His-tag: recombinant fibronectin type I domains 4-5, N-terminally tagged to growth hormone and His6-tag, C-terminal His6-tag",–,specifically capture
